Assay results from US20200171065A1, “METHOD FOR TREATING LIVER DISEASE WITH KINSENOSIDE” (HUAZHONG UNIVERSITY OF SCIENCE AND TECHNOLOGY, priority 2017, published 2020).
“Also recorded” adds a separate entry of the source.

Tests used:
Assay type in all cases: in vivo
[1] = test system: C57BL/6J mice with alcoholic fatty liver; test: Alcoholic fatty liver (5% alcoholic Lieber-DeCarli liquid diet)
Description: C57BL/6J mice aged 7-8 weeks were raised in the SPF experimental animal center of Tongji Medical College of Huazhong University of Science and Technology. They were provided with standard diet and drinking water. The room temperature was controlled at 23±2° C. After 7 days of adaptive feeding, they were given drugs by intragastric administration. […] The mice were fed with a 5% alcoholic Lieber-DeCarli liquid diet and developed alcoholic fatty liver disease. The mice were administered with alcohol and drugs. Spherically, drinking water were administered to the control group and the model group, and different doses were administered to the dose groups.

[2] = test system: C57BL/6J mice with alcoholic liver fibrosis; test: Alcoholic liver fibrosis (Lieber-DeCarli liquid diet + CCl4)
Description: C57BL/6J mice aged 8 weeks were raised in the SPF experimental animal center of Tongji Medical College of Huazhong University of Science and Technology. They were provided with standard diet and drinking water. The room temperature was controlled at 23±2° C. After 7 days of adaptive feeding, they were given drugs by intragastric administration.
The mice were fed with a 5% alcoholic Lieber-DeCarli liquid diet and intraperitoneal injection of CCl4 (CCl4 was intraperitoneally injected twice a week for the last four weeks). The mice were developed alcoholic fatty liver disease. The mice were administered with alcohol and drugs. Spherically, drinking water were administered to the control group and the model group, and different doses were administered to the dose groups.

[3] = test system: C57 mice with MCD-induced NASH; test: Nonalcoholic steatohepatitis induced by methionine choline deficiency (MCD) feed
Description: 150 SPF male mice C57 aged 6-8 weeks were raised in the SPF experimental animal center of Tongji Medical College of Huazhong University of Science and Technology. They were provided with standard diet and drinking water. The room temperature was controlled at 23±2° C. After 7 days of adaptive feeding, they were given drugs by intragastric administration. […] The control groups were administered with normal diet. The model group and each administration group were fed with methionine choline deficiency (MCD) feed. Each group was administrated by gavage. The control group and the model group were given equal amount of thrice steamed water once a day for 8 weeks. The mice were weighed every three days. The hair color, state, food, water and defecation of each group were observed, and the death of each group was recorded. At the end of the 2nd week, 4th week and 6th week, three mice were randomly selected and killed to observe the modeling state. At the end of the 8th week, after the last administration, all mice were provided with no food but water for 12 hours, and all indexes were measured.

O=C1C[C@@H](O[C@@H]2O[C@H](CO)[C@@H](O)[C@H](O)[C@H]2O)CO1 [KD] was tested, and the “fat vacuoles / histopathological damage of liver (H&E staining)” value ([1]; 40 and 20 mg/kg KD) was “could reduce histopathological damage of liver and reduce fat vacuoles in liver of mice; also recorded: fat vacuoles were reduced”, the “SOD activity in the liver / oxidative stress injuries” value ([1]; AFL mice) was “increased the activity of superoxide dismutase (SOD) in the liver of AFL and ALF mice; also recorded: could reverse the oxidative stress injuries” and the “serum ALT” value ([1]; AFL mice) was “decreased the serum alanine aminotransferase (ALT) of AFL and ALF mice”. For the same molecule, the “secretion of TNF-α and IL-6” value ([1]; high and medium dose groups) was “inhibited the secretion of TNF and IL6 in AFL and ALF; also recorded: reduced the secretion of the inflammatory cytokine TNF-α and IL-6”, the “therapeutic effect on alcoholic fatty liver (overall)” value ([1]; mouse, in vivo) was “has a good therapeutic effect on alcoholic fatty liver and alcoholic liver fibrosis” and the “fibrosis degree (Masson staining)” value ([2]; 40 and 20 mg/kg KD) was “can significantly reduce the degree of fibrosis in mice; also recorded: the fibrosis degree was reduced”. The “inflammatory cells and Mallory bodies (H&E staining)” value ([2]; 40 and 20 mg/kg KD) was “the inflammatory cells in the KD group were reduced compared with the model group”, the “SOD activity in the liver homogenate / oxidative stress injuries” value ([2]; ALF mice) was “increased the activity of superoxide dismutase (SOD) in the liver of AFL and ALF mice; also recorded: could reverse the oxidative stress injuries” and the “serum ALT” value ([2]; ALF mice) was “decreased the serum alanine aminotransferase (ALT) of AFL and ALF mice; also recorded: decreased after KD treatment”. For the same molecule, the “secretion of TNF-α and IL-6” value ([2]; high and medium dose groups) was “inhibited the secretion of TNF and IL6 in AFL and ALF; also recorded: reduced the secretion of the inflammatory cytokine TNF-α and IL-6”, the “therapeutic effect on alcoholic liver fibrosis (overall)” value ([2]; mouse, in vivo) was “has a good therapeutic effect on alcoholic fatty liver and alcoholic liver fibrosis” and the “lipid droplet area of sections (Image J), compared with the positive group” value ([3]; 8 w, high-dose KD group) was “even better than that of the positive group”. The “liver fat accumulation (oil red O staining)” value ([3]; 40, 20 and 10 mg/kg KD) was “Fat accumulation in liver was significantly reduced”, the “liver cell apoptosis / Cleaved Caspase3 (CC3) protein (immunohistochemical staining)” value ([3]; KD group at different doses) was “could reduce the liver cell apoptosis to varying degrees, thus reducing the expression of liver CC3 protein” and the “expression of Bcl-2, Bax and Casp3 genes in liver (RT-qPCR)” value ([3]; KD high-dose group) was “significantly increased the expression of anti-apoptotic gene Bcl-2, decreased the expression of pro-apoptotic gene Bax, reduced the expression of apoptotic marker gene Casp3”. The “fiber formation (Masson staining, fiber area)” value ([3]; all the KD groups, 8 weeks) was “the liver fiber content decreased, and the effect of KD was even better than that of the positive drug group; also recorded: had inhibitory effect on the fiber formation”, the “liver coefficient (liver index)” value ([3]; different doses of KD) was “could reduce liver fat and normalize the liver index; also recorded: reduce liver coefficient” and the “ALT and AST levels in the serum” value ([3]; different doses of KD, 8 weeks) was “the AST and ALT levels were decreased in each dose group of KD; also recorded: could significantly reduce the ALT and AST levels in the serum”. The “expression of fibrotic marker protein α-SMA (Western blot, immunohistochemistry)” value ([3]; each KD dose group) was “could reduce the expression of α-SMA; also recorded: could be reduced in each KD dose group”, the lipid content ([3]; each KD group) was “slightly increased” and the “serum HA and LN (ELISA)” value ([3]; each dose group of KD) was “could significantly reduce the content of HA and LN; also recorded: could reduce the content of HA and LN in varying degrees”. The “expression of Bcl-xl and BAX proteins in liver (Western Blot)” value ([3]; mouse, in vivo) was “the expression of anti-apoptotic protein Bcl-xl was increased, and the proapoptotic protein BAX was inhibited”, the “expression of MMP-13 in the liver (qPCR)” value ([3]; mouse, in vivo) was “increase the expression of matrix metalloproteinase-13 (MMP-13)” and the “expression of pro-apoptotic and anti-apoptotic genes and proteins” value ([3]; mouse, in vivo) was “could also reduce the expression of pro-apoptotic genes and proteins, and increase the expression of anti-apoptotic genes”. The “expression of α-SMA, Col I, TIMP-1 and TGF-β in the liver (qPCR)” value ([3]; mouse, in vivo) was “could effectively inhibit the expression”, the “inflammatory infiltration of liver (HE staining)” value ([3]; mouse, in vivo) was “could inhibit the inflammatory infiltration of liver” and the “oxidative stress (SOD, MDA in liver)” value ([3]; mouse, in vivo) was “SOD content in the liver increased and oxidative product MDA decreased; also recorded: could reverse the oxidative stress injuries”. The “shear wave velocity / liver hardness (SWE)” value ([3]; mouse, in vivo) was “the liver hardness of the KD group decreased; also recorded: could significantly reduce the shear wave velocity” and the “therapeutic effect on MCD-induced NASH (overall, vs silymarin and Fuzheng Huayu capsule)” value ([3]; mouse, in vivo) was “dose-dependent, and its effect was similar to that of the drugs silymarin and Fuzheng Huayu capsule, and was better than that of the drugs in some indexes; also recorded: has a good therapeutic effect on MCD-induced NASH”.
